The nature of the series: Solubility of Diamine in various kinds of solvents. It is filed as physicochemical. The settings on record: for solubility: organic solvent or mixture, thermodynamic from solid, Sample 30 mg/solvent 2 mL. How it is done: Melting points and solubilities in various kinds of solvents of the diamines obtained in the above-described Examples and Comparative Examples are shown in Table 1 below. In the following Table 1, the evaluation +++ indicates soluble at room temperature, the evaluation ++ indicates soluble by heating, the evaluation + indicates half-soluble by heating, and the evaluation − indicates insoluble in solvent.
Sample 30 mg/solvent 2 mL, the evaluation +++ indicates soluble at room temperature, the evaluation ++ indicates soluble by heating, the evaluation + indicates half-soluble by heating, and the evaluation − indicates insoluble.

The mark [1] stands for this setting: MC (methyl cellosolve), MC (methyl cello solve), read-out: Solubility in MC.
The mark [2] stands for this setting: Acetone, read-out: Solubility in Acetone.
[3] abbreviates: Acetonitrile, read-out: Solubility in Acetonitrile.
Where [4] appears, read: Chloroform, read-out: Solubility in Chloroform.
The mark [5] stands for this setting: DMF (N,N-dimethylformamide), read-out: Solubility in DMF.
[6] abbreviates: DMSO (dimethylsulfoxide), read-out: Solubility in DMSO.
[7] abbreviates: Ethyl acetate, read-out: Solubility in Ethyl acetate.
[8] abbreviates: Isopropanol, read-out: Solubility in Isopropanol.
Setting [9] is: THF, read-out: Solubility in THF.
Setting [10] is: Toluene, read-out: Solubility in Toluene.
Where [11] appears, read: m-cresol, read-out: Solubility in m-cresol.
Where [12] appears, read: Methanol, read-out: Solubility in Methanol.

Like-named read-outs stand apart in the source and are kept apart here. A value given as a limit tells only on which side of the number the result lay.

As for `Nc1ccc(C(=O)Oc2ccc(OC(=O)c3ccc(N)cc3)cc2)cc1` [Com. Ex. 1, 1,4-bis(4-aminobenzoyloxy)benzene, reference compound], the “Solubility in the various kinds of solvents (in words)” value (from here on “Solubility in the various kinds”) is “hot-dissolved only in DMF”. The solubility under setting [1] was less than 15 mg/mL. Moreover, the solubility under setting [2] is less than 15 mg/mL. Besides, the solubility under setting [3] was less than 15 mg/mL. Moreover, under setting [4], the solubility was less than 15 mg/mL. Besides, under setting [5], the solubility is less than 15 mg/mL. In addition, the solubility under setting [6] is less than 15 mg/mL. Under setting [7], the solubility was less than 15 mg/mL. Also, under setting [8], the solubility was less than 15 mg/mL. Besides, the solubility under setting [9] was less than 15 mg/mL. The solubility under setting [10] is less than 15 mg/mL. Also, the solubility under setting [11] is less than 15 mg/mL.
Turning to `Cc1cc(OC(=O)c2ccc(N)cc2)ccc1OC(=O)c1ccc(N)cc1` [Com. Ex. 2, 2,5-bis(4-aminobenzoyloxy)toluene, reference compound], the “Solubility in the various kinds” value is “hot-dissolved barely in a high-polar solvent”. Moreover, the solubility under setting [1] was less than 15 mg/mL. Moreover, the solubility under setting [2] was less than 15 mg/mL. Further, the solubility under setting [3] was less than 15 mg/mL. Further, under setting [4], the solubility was less than 15 mg/mL. The solubility under setting [5] is more than 15 mg/mL. For the same molecule, under setting [6], the solubility is less than 15 mg/mL. Further, the solubility under setting [7] was less than 15 mg/mL. For the same molecule, under setting [8], the solubility was less than 15 mg/mL. Besides, the solubility under setting [12] was less than 15 mg/mL. Moreover, the solubility under setting [9] is less than 15 mg/mL. Also, the solubility under setting [10] is less than 15 mg/mL. Moreover, the solubility under setting [11] is less than 15 mg/mL.
`Nc1cccc(C(=O)Oc2ccc(C(c3ccc(OC(=O)c4cccc(N)c4)cc3)(C(F)(F)F)C(F)(F)F)cc2)c1` [Example 2, 2,2′-bis[4-(3-aminobenzoyloxy)phenyl]hexafluoropropane]: the “Solubility in the various kinds” value is “easily dissolved in various solvents”. The solubility under setting [1] was more than 15 mg/mL. The solubility under setting [2] is more than 15 mg/mL. Further, the solubility under setting [3] was more than 15 mg/mL. Under setting [4], the solubility is less than 15 mg/mL. The solubility under setting [5] was more than 15 mg/mL. Also, under setting [6], the solubility is more than 15 mg/mL. Under setting [7], the solubility was more than 15 mg/mL. Further, the solubility under setting [8] was less than 15 mg/mL. The solubility under setting [12] was more than 15 mg/mL. Moreover, under setting [9], the solubility was more than 15 mg/mL. The solubility under setting [10] is less than 15 mg/mL. The solubility under setting [11] was more than 15 mg/mL.
Regarding `Nc1cccc(C(=O)Oc2ccc(S(=O)(=O)c3ccc(OC(=O)c4cccc(N)c4)cc3)cc2)c1` [Example 4, bis[4-(3-aminobenzoyloxy)phenyl]sulfone], the solubility is less than 15 mg/mL under setting [1]; less than 15 mg/mL under setting [2]; less than 15 mg/mL under setting [3]; less than 15 mg/mL under setting [4]; more than 15 mg/mL under setting [5]; more than 15 mg/mL under setting [6]. Besides, the solubility reads like this: under setting [7], less than 15 mg/mL; under setting [8], less than 15 mg/mL; under setting [12], less than 15 mg/mL; under setting [9], less than 15 mg/mL; under setting [10], less than 15 mg/mL; under setting [11], more than 15 mg/mL.
In the case of `Cc1cc(OC(=O)c2cccc(N)c2)ccc1OC(=O)c1cccc(N)c1` [Example 6, 1-methyl-2,5-bis(3-aminobenzoyloxy)benzene], the solubility under setting [1] is more than 15 mg/mL; the solubility under setting [2] is more than 15 mg/mL; the solubility under setting [3] was more than 15 mg/mL; the solubility under setting [4] was more than 15 mg/mL; the solubility under setting [5] is more than 15 mg/mL; the solubility under setting [6] is more than 15 mg/mL. Moreover, the solubility is, setting by setting: under setting [7], more than 15 mg/mL; under setting [8], less than 15 mg/mL; under setting [12], less than 15 mg/mL; under setting [9], more than 15 mg/mL; under setting [10], less than 15 mg/mL; under setting [11], more than 15 mg/mL.
Turning to `Cc1cc(OC(=O)c2cccc(N)c2)c(C)c(C)c1OC(=O)c1cccc(N)c1` [Example 8, 1,2,4-trimethyl-3,6-bis(3-aminobenzoyloxy)benzene], the solubility by setting is: under setting [1], more than 15 mg/mL; under setting [2], more than 15 mg/mL; under setting [3], more than 15 mg/mL; under setting [4], more than 15 mg/mL; under setting [5], more than 15 mg/mL; under setting [6], more than 15 mg/mL. The solubility is, setting by setting: under setting [7], more than 15 mg/mL; under setting [8], less than 15 mg/mL; under setting [12], less than 15 mg/mL; under setting [9], more than 15 mg/mL; under setting [10], less than 15 mg/mL; under setting [11], more than 15 mg/mL.

The values are drawn from patent US20240239741A1, “META-ESTER AROMATIC DIAMINES, METHOD FOR PRODUCING SAME, AND POLYIMIDE HAVING SAID META-ESTER AROMATIC DIAMINES AS RAW MATERIAL” (SEIKA CORPORATION, priority 2021, published 2024).
